In test [1] the target is T1, histamine H2 receptors (Cavia porcellus, UniProt P47747).
T1 construct: Excised right atrium of Hartley male guinea pigs; from tissue; host or cells: isolated right atrium of male Hartley guinea pigs
The test is described as follows: Antagonistic action against histamine H2 receptors (isolated right atrium). Details: species or system Hartley male guinea pigs. The following applies: guinea pig isolated right atrium, 30° C.; concentration for two-fold shift of the histamine dose-response curve; read-out: Antagonistic action against histamine H2 receptors, pA2 (converted). How it is done:
Excised right atrium of Hartley male guinea pigs (weighing 450-550 g) was used. Thus, the guinea pig was fainted by strongly hitting the occipital region, and then the chest opened to isolate the heart. The isolated heart was immersed in a Krebs-Henseleit nutrient solution at 30° C. which had sufficiently been aerated with 95% O2 +5% CO2. The right atrium with the right cardiac auricle attached thereto was separated carefully enough to avoid damages. Blood vessels and tissues attached around the separated organ were removed. Both ends of the separated right cardiac auricle were held with threaded Serfin, and the thread at one end was fixed in a tissue tank filled with the nutrient solution, and the thread at the other end connected to a tension measuring and recording instrument and loaded with 1-g weight. The nutrient solution in the tissue tank was maintained at a temperature of 30° C. and consistently aerated with a 95% O2 +5% CO2 gas. The nutrient solution was exchanged every 5-10 min.
After spontaneous contractions of the isolated right atrium specimen were stabilized, and the heart rate became constant, histamine was cumulatively introduced into the tissue tank. Thus, histamine was introduced cumulatively starting at 10^-7 M and gradually at 3×10^-7 M, 10^-6 M, […], and so on. When the heart rate became constant at a given concentration, the concentration was further increased, and the cumulative introduction of histamine was continued until the heart rate no more increased. There was then determined a histamine dose-response curve.
Antagonistic action of the phenol derivatives of the invention against histamine H2 receptors was tested using the isolated right atrium specimen previously employed for determining a histamine dose-response curve. Thus, said specimen with the increased heart rate by the cumulative introduction of histamine was repeatedly washed with a nutrient solution to remove the histamine. When the heart rate was decreased by the histamine removal to a constant level, a phenol derivative of the invention was introduced into the tissue tank. After the introduction of said phenol derivative, histamine was cumulatively introduced sufficiently to determine a histamine dose-response curve in the presence of said phenol derivative. Antagonistic action of the phenol derivatives of the invention is determined by measuring the distance (mm) at 50% reaction between the dose-response curve in the absence of said phenol derivative and one in the presence of said phenol derivative and calculating pA2 on the basis of the distance from the Van Rossum simplified table.
Note that the pA2 in the table means a -log value of the concentration of a phenol derivative of the invention necessary for parallel displacement of the histamine dose-response curve to the side of a twice increase in concentration.

In test [2] the target is T2, 5-lipoxygenase (Rattus norvegicus, UniProt P12527).
T2 construct: The supernatant is employed as an enzyme solution of a 5-lipoxygenase; endogenous in cells; host or cells: RBL-1 rat basophilic leukemia cells (supernatant of sonicated cells)
T2 sequence (P12527 1-673): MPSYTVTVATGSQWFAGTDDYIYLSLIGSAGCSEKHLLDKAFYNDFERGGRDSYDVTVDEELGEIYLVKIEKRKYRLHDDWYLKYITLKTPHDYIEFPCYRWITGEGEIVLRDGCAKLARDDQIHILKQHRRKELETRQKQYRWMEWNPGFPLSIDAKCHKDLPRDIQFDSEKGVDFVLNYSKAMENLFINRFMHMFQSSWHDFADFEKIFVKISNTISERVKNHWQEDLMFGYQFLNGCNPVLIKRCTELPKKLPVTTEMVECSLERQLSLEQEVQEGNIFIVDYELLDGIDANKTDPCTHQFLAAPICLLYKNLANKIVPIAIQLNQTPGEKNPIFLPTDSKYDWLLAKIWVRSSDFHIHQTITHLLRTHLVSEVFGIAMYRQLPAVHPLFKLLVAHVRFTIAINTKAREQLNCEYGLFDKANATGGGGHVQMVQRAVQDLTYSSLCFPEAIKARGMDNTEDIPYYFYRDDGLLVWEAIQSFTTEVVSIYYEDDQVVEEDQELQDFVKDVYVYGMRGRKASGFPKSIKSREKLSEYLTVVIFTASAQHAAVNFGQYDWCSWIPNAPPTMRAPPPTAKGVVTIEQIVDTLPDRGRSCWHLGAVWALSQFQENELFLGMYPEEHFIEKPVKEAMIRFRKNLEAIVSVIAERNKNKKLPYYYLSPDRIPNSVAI
The test is described as follows: 5-Lipoxygenase-inhibiting activity. It is filed as biochemical. The following applies: RBL-1 cell supernatant; arachidonic acid 50 μg; 37° C., 15 min; 5-HETE by HPLC; read-out: 5-Lipoxygenase inhibiting activity, 50% Inhibition conc. How it is done: A suspension of rat-origin basophilic leukemia cell strain RBL-1 in an Eagle basal medium (manufactured by Gibco Laboratories) containing 10% FCS is cultivated in a 5% CO2 incubator at 37° C. The culture is then centrifuged at 4° C. to collect cells. The cells are re-suspended in a phosphate buffer solution at pH 7.4 to a cell density of 1.0×10^7 -3.0×10^7 cells/ml. The suspended cells are treated by an ultrasonic cell blender and then centrifuged at 15,000 rpm at 4° C. for 30 min. The supernatant is employed as an enzyme solution of a 5-lipoxygenase. In test tubes are placed 50 μg of arachidonic acid and a phenol derivative of the invention to be tested. To each of the test tubes are added 0.30 ml of phosphate buffer, 0.20 ml of the enzyme solution as prepared above and 5 μl of a 100 mM CaCl2 (calcium chloride) solution. The mixture is allowed to react at 37° C. for 15 min. To the reaction mixture, after ice-cooling, is added one drop of 1N HCl (hydrochloric acid), and the resulting mass is extracted with 2 ml of ethyl acetate. The extract is concentrated to dryness followed by the addition of 100 μl of methanol for use as a test specimen.
Said specimen is injected into octadecylsilane (ODS) reverse phase high performance liquid chromatography (HPLC), eluted with methanol - acetonitrile - water - acetic acid (15:45:35:0.01). Peak for 5-HETE (5-(s)-hydroxy-6,8,11,14-eicosatetraenoic acid), a 5-lipoxygenase product detected in approximately 25 min. is measured. The 5-lipoxygenase-inhibiting activity is determined by decrease in the peak for said 5-lipoxygenase product.
50% inhibitory concentration as referred to in the table means concentration of a phenol derivative required for controlling the production of […] as described above to 50% by introducing said phenol derivative when production of 5-HETE without phenol derivative of the invention is taken as 100%.

In test [3] the test system is ethanol hydrochloric acid ulcer. The test is described as follows: Inhibitory activity against ethanol hydrochloric acid ulcer. It is filed as in vivo. The following applies: SD male rats, 30 mg/kg orally, 1 hour before 150 mM HCl in 60% ethanol. How it is done: To SD male rats (weighing 150-250 g) fasted for 24 hours was administered orally a phenol derivative of the invention at a dose of 30 mg/kg bodyweight. One hour later, a hydrochloric acid solution in ethanol (containing 150 mM hydrochloric acid in 60% ethanol) was orally given in a volume of 0.5 ml/100 g bodyweight.
One hour later, the animals were sacrificed with ether. The stomach was excised and, after formalin treatment, measured for the length (mm) of lesions developed in glandular portions of the stomach. Total length of the lesions per animal was taken as ulcer index.
Percent inhibition of ulceration as referred to in the table is a value obtained by reducing from 1 the ulcer index for the rat with a phenol derivative of the invention orally given divided by the ulcer index for the orally nonadministered rat and multiplying the value by 100. The calculation is conducted by the formula shown below. [formula]

Experimental findings from patent US5037837A, “Phenoxypropylamine derivatives or salts thereof and antiulcer agents containing the same” (Terumo Kabushiki Kaisha, priority 1989, dated 1991) are described below.

T1 sequence (P47747 whole entry): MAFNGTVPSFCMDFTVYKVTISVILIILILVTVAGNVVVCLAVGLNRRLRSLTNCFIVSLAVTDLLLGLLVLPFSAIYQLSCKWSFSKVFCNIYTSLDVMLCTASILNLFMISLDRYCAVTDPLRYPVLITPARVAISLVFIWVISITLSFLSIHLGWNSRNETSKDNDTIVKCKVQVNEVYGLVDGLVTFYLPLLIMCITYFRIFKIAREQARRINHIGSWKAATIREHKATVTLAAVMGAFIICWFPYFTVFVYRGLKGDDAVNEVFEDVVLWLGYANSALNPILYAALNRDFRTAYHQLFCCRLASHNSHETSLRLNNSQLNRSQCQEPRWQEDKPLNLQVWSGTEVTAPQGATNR

Regarding `CC(C)(C)c1cc(CCCCC(=O)NCCCOc2cccc(CN3CCCCC3)c2)cc(C(C)(C)C)c1O` [Example 3, N-[3-(3-(1-piperidinylmethyl)phenoxy)propyl]-5-(3,5-di-tert-butyl-4-hydroxyphenyl)pentylamide], the Kb in test [1] was 2.57 µM. Also, the IC50 in test [2] is 20 µM. In addition, the “Inhibitory activity against ethanol hydrochloric acid ulcer, Percent inhibition of ulceration” value in test [3] came to 42.9%.

Turning to `COc1cc(CCCCC(=O)NCCCOc2cccc(CN3CCCCC3)c2)cc(OC)c1O` [Example 4, N-[3-(3-(1-piperidinylmethyl)phenoxy)propyl]-5-(4-hydroxy-3,5-dimethoxyphenyl)pentylamide], the Kb in test [1] is 0.49 µM. In addition, in test [2], the IC50 stood at 13 µM. The “Inhibitory activity against ethanol hydrochloric acid ulcer, Percent inhibition of ulceration” value in test [3] came out at 62.5%.

As for `COc1cc(CCC(=O)NCCCOc2cccc(CN3CCCCC3)c2)ccc1O` [Example 5, N-[3-(3-(1-piperidinylmethyl)phenoxy)propyl]-3-(4-hydroxy-3-methoxyphenyl)propylamide], the Kb in test [1] was 0.631 µM. Further, in test [2], the IC50 came to 32 µM. Also, the “Inhibitory activity against ethanol hydrochloric acid ulcer, Percent inhibition of ulceration” value in test [3] was 48.0%.

With `COc1cc(CCCC(=O)NCCCOc2cccc(CN3CCCCC3)c2)ccc1O` [Example 6, N-[3-(3-(1-piperidinylmethyl)phenoxy)propyl]-4-(4-hydroxy-3-methoxyphenyl)butylamide], the Kb in test [1] was 0.0501 µM. Further, in test [2], the IC50 is 8.9 µM. The “Inhibitory activity against ethanol hydrochloric acid ulcer, Percent inhibition of ulceration” value in test [3] is given as 76.5%.

As for `O=C(CCCCc1ccc(O)cc1)NCCCOc1cccc(CN2CCCCC2)c1` [Example 2, N-[3-(3-(1piperidinylmethyl)phenoxy)propyl]-5-(4-hydroxyphenyl)-pentylamide], the Kb in test [1] is 0.316 µM. In addition, in test [2], the IC50 amounted to 120 µM. In test [3], the “Inhibitory activity against ethanol hydrochloric acid ulcer, Percent inhibition of ulceration” value was determined as 33.4%.

As to `O=C(CCCCc1ccc(O)c(O)c1)NCCCOc1cccc(CN2CCCCC2)c1` [Example 7, N-[3-(3-(1piperidinylmethyl)phenoxy)propyl]-5-(3,4dihydroxyphenyl)pentylamide], in test [1], the Kb is 0.141 µM. For the same molecule, in test [2], the IC50 came out at 5.9 µM. Also, the “Inhibitory activity against ethanol hydrochloric acid ulcer, Percent inhibition of ulceration” value in test [3] is reported as 83.7%.

Regarding `COc1cc(CCCCC(=O)NCCCOc2cccc(CN3CCCCC3)c2)ccc1O` [Example 1, N-[3-(3(1-piperidinylmethyl)phenoxy)propyl]-5-(4-hydroxy-3methoxyphenyl)pentylamide], the Kb in test [1] is 0.0575 µM. In test [2], the IC50 was determined as 6.1 µM. In test [3], the “Inhibitory activity against ethanol hydrochloric acid ulcer, Percent inhibition of ulceration” value is listed as 89.5%.
